Experimental data taken from patent US20030224942A1, “Alkylamino-1,3,5-triazines, processes for their preparation and their use as herbicides and plant growth regulators” (priority 2001, published 2003).

Legend:
[1] = tested on: Cyperus spp., Echinochloa spp., Digitaria spp., Sagitaria spp. and Scirpus spp.; assay: Action on harmful plants in rice (paddy rice conditions, visual scoring); assay type: in vivo, typical rice weeds (gramineous and broad-leaved); conditions: applied into the dammed water, visual scoring about three weeks after application
Procedure, shortened: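 Rice and typical gramineous and broad-leaved rice weeds grown in closed pots in greenhouse under paddy conditions (2-3 cm water) to three-leaf stage (Echinochloa crus-galli 1.5-leaf), then treated with compounds. Plants kept under optimum greenhouse conditions throughout; effect scored visually.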

[2] = tested on: Chenopodium spp., Papaver spp., Polygonum spp., Veronica spp. or Viola spp.; assay: Post-emergence effect on weeds (greenhouse pot test, visual scoring); assay type: in vivo, monocotyledonous and dicotyledonous weeds; conditions: treated at three-leaf stage; visual scoring after about 3 to 4 weeks; application rate of 0.5 kg and less of active substance per hectare

Row | Structure (SMILES) | herbicidal activity against harmful plants which are typical for rice crops [1] | herbicidal activity post-emergence against harmful plants [2]
1 | CC#Cc1ccc(C(Nc2nc(N)nc(CC)n2)C2CC2)cc1 (centres unmarked) [Product P9.1583] | very good herbicidal activity | very good herbicidal activity
2 | CCc1nc(N)nc(NC(c2cccc(C3CC3)c2)C2CC2)n1 (centres unmarked) [Product P9.1603] | very good herbicidal activity | very good herbicidal activity
3 | CCc1nc(N)nc(NC(c2ccc(C3CC3)cc2)C2CC2)n1 (centres unmarked) [Product P9.1604] | very good herbicidal activity | very good herbicidal activity
4 | CC(C)c1nc(N)nc(NCc2cccc(C(F)=C(F)F)c2)n1 [Product P11.1567] | very good herbicidal activity | very good herbicidal activity
5 | CC(C)c1nc(N)nc(NCc2ccc(C(F)=C(F)F)cc2)n1 [Product P11.1568] | very good herbicidal activity | very good herbicidal activity
6 | C#Cc1cccc(CNc2nc(N)nc(C(C)C)n2)c1 [Product P11.1579] | very good herbicidal activity | very good herbicidal activity
7 | C#Cc1ccc(CNc2nc(N)nc(C(C)C)n2)cc1 [Product P11.1580] | very good herbicidal activity | very good herbicidal activity
8 | CC#Cc1cccc(CNc2nc(N)nc(C(C)C)n2)c1 [Product P11.1582] | very good herbicidal activity | very good herbicidal activity
9 | CC#Cc1ccc(CNc2nc(N)nc(C(C)C)n2)cc1 [Product P11.1583] | very good herbicidal activity | very good herbicidal activity
10 | CC(C)c1nc(N)nc(NCc2cccc(C3CC3)c2)n1 [Product P11.1603] | very good herbicidal activity | very good herbicidal activity
11 | CC(C)c1nc(N)nc(NCc2ccc(C3CC3)cc2)n1 [Product P11.1604] | very good herbicidal activity | very good herbicidal activity
12 | CC(C)c1nc(N)nc(NC(C)c2ccc(F)c(C(F)=C(F)F)c2)n1 (centres unmarked) [Product P12.5] | very good herbicidal activity | very good herbicidal activity
13 | CC(C)c1nc(N)nc(NC(C)c2cc(F)c(C(F)=C(F)F)c(F)c2)n1 (centres unmarked) [Product P12.49] | very good herbicidal activity | very good herbicidal activity
14 | C#Cc1ccc(C(C)Nc2nc(N)nc(C(C)C)n2)cc1C (centres unmarked) [Product P12.335] | very good herbicidal activity | very good herbicidal activity
15 | CC(O)C#Cc1cc(C(C)Nc2nc(N)nc(C(C)C)n2)ccc1F (centres unmarked) [Product P12.840] | very good herbicidal activity | very good herbicidal activity
16 | CC(C)c1nc(N)nc(NC(C)c2ccc(F)c(C3CC3)c2)n1 (centres unmarked) [Product P12.916] | very good herbicidal activity | very good herbicidal activity
17 | CC(C)c1nc(N)nc(NC(C)c2cc(F)c(C3CC3)c(F)c2)n1 (centres unmarked) [Product P12.960] | very good herbicidal activity | very good herbicidal activity
18 | CC(C)c1nc(N)nc(NC(C)c2cccc(C(F)=C(F)F)c2)n1 (centres unmarked) [Product P12.1567] | very good herbicidal activity | very good herbicidal activity
19 | CC(C)c1nc(N)nc(NC(C)c2ccc(C(F)=C(F)F)cc2)n1 (centres unmarked) [Product P12.1568] | very good herbicidal activity | very good herbicidal activity

Row | Structure (SMILES) | herbicidal activity against harmful plants which are typical for rice crops [1] | herbicidal activity post-emergence against harmful plants [2]
20 | C#Cc1cccc(C(C)Nc2nc(N)nc(C(C)C)n2)c1 (centres unmarked) [Product P12.1579] | very good herbicidal activity | very good herbicidal activity
21 | CC(C)c1nc(N)nc(NC(C)c2cccc(C3CC3)c2)n1 (centres unmarked) [Product P12.1603] | very good herbicidal activity | very good herbicidal activity
22 | CC(C)c1nc(N)nc(NC(C)c2ccc(C3CC3)cc2)n1 (centres unmarked) [Product P12.1604] | very good herbicidal activity | very good herbicidal activity
23 | C#Cc1ccc(C(C)Nc2nc(N)nc(C(C)C)n2)cc1F (centres unmarked) [Product P12.1620] | very good herbicidal activity | very good herbicidal activity
24 | C#Cc1cc(C(Nc2nc(N)nc(C(C)C)n2)C2CC2)ccc1F (centres unmarked) [Product P14.309] | very good herbicidal activity | very good herbicidal activity
25 | C#Cc1c(F)cc(C(Nc2nc(N)nc(C(C)C)n2)C2CC2)cc1F (centres unmarked) [Product P14.352] | very good herbicidal activity | very good herbicidal activity
26 | CC#Cc1cc(C(Nc2nc(N)nc(C(C)C)n2)C2CC2)ccc1F (centres unmarked) [Product P14.384] | very good herbicidal activity | very good herbicidal activity
27 | CC#Cc1c(F)cc(C(Nc2nc(N)nc(C(C)C)n2)C2CC2)cc1F (centres unmarked) [Product P14.428] | very good herbicidal activity | very good herbicidal activity
28 | CC(C)c1nc(N)nc(NC(c2cccc(C(F)=C(F)F)c2)C2CC2)n1 (centres unmarked) [Product P14.1567] | very good herbicidal activity | very good herbicidal activity
29 | CC(C)c1nc(N)nc(NC(c2ccc(C(F)=C(F)F)cc2)C2CC2)n1 (centres unmarked) [Product P14.1568] | very good herbicidal activity | very good herbicidal activity
30 | C#Cc1cccc(C(Nc2nc(N)nc(C(C)C)n2)C2CC2)c1 (centres unmarked) [Product P14.1579] | very good herbicidal activity | very good herbicidal activity
31 | C#Cc1ccc(C(Nc2nc(N)nc(C(C)C)n2)C2CC2)cc1 (centres unmarked) [Product P14.1580] | very good herbicidal activity | very good herbicidal activity
32 | CC#Cc1cccc(C(Nc2nc(N)nc(C(C)C)n2)C2CC2)c1 (centres unmarked) [Product P14.1582] | very good herbicidal activity | very good herbicidal activity
33 | CC#Cc1ccc(C(Nc2nc(N)nc(C(C)C)n2)C2CC2)cc1 (centres unmarked) [Product P14.1583] | very good herbicidal activity | very good herbicidal activity
34 | CC(C)c1nc(N)nc(NC(c2cccc(C3CC3)c2)C2CC2)n1 (centres unmarked) [Product P14.1603] | very good herbicidal activity | very good herbicidal activity
35 | CC(C)c1nc(N)nc(NC(c2ccc(C3CC3)cc2)C2CC2)n1 (centres unmarked) [Product P14.1604] | very good herbicidal activity | very good herbicidal activity
36 | CC(C)(F)c1nc(N)nc(NCc2ccc(F)c(C(F)=C(F)F)c2)n1 [Product P16.5] | very good herbicidal activity | very good herbicidal activity
37 | CC(C)(F)c1nc(N)nc(NCc2cc(F)c(C(F)=C(F)F)c(F)c2)n1 [Product P16.49] | very good herbicidal activity | very good herbicidal activity
